Experimental data taken from patent publication US20060198879A1, “Patch material for ionic medicine administration” (Tokuyama Corporation, priority 2003, published 2006).
Blank lines part the entries; values can stand above or below the compound they belong to.

Experiments:
[1] = Amount of medicine permeated in virtual skin system; type: in vitro ADME; conditions: 10 mmol/l, 25° C., no voltage
Protocol: (4) Amount of Medicine Permeated in Virtial Skin System
(§1) An aqueous solution containing 10% by mass of a polyvinyl alcohol (NH-20 produced by The Nippon Synthetic Chemical Industry Co., Ltd.) was coated on a filter paper (a chemical analysis filter paper 5C produced by Advantec). The amount of the solution coated was such that the amount of the polyvinyl alcohol after solvent removal was 2 mg/cm^2. Then, the filter paper was allowed to stand at room temperature for 24 hours or more to vaporize the water, whereby was obtained a virtual skin. […] An aqueous solution containing a given concentration of a medicine was filled in a medicine solution chamber 22; and an aqueous solution containing […] by mass of sodium chloride was filled in a virtual skin chamber 23. Then, a permeation test was conducted at 25° C. for a given period of time with the inside of the medicine solution chamber 22 and the inside of the virtual skin chamber 23 being stirred. Right after the completion of the test, the solution inside the virtual skin chamber 23 was withdrawn and used as a sample for measurement. The amount of medicine in the sample was determined using liquid chromatography.

[2] = Amount of medicine permeated in living body skin system; type: in vitro ADME, miniature pig (Yucatane Micropig); conditions: 10 mmol/l, miniature pig back skin
Protocol: as §1
(5) Amount of Medicine Permeated in Living Body Skin System
The amount of the medicine permeated was measured in the same manner as in the virtual skin system, by replacing the virtual skin (a filter paper coated with a polyvinyl alcohol) with a living body skin, i.e. the back skin of miniature pig (Yucatane Micropig, 5 month-old, female).

[3] = sodium ascorbate, duration of permeation 3 hr
[4] = magnesium salt of ascorbic acid-phosphoric acid ester, duration of permeation 1 hr
[5] = magnesium salt of ascorbic acid-phosphoric acid ester, duration of permeation 2 hr
[6] = magnesium salt of ascorbic acid-phosphoric acid ester, duration of permeation 3 hr

SMILES: O=C1O[C@H]([C@@H](O)CO)C([O-])=C1O.[Na+] [Comparative Example 4, sodium ascorbate]
Amount of permeation [1, 3]: 5.2 μmol/cm^2

SMILES: Cl.Cl.NCCc1c[nH]cn1 [compound 6, histamine dihydrochloride]
Amount of permeation ([1]; histamine dihydrochloride, duration of permeation 3 hr): 2.5 μmol/cm^2

SMILES: O=C1O[C@H]([C@@H](O)CO)C([O-])=C1O.[Na+] [compound 8, sodium ascorbate]
Amount of permeation ([2]; sodium ascorbate, duration of permeation 1 hr): 0.003 μmol/cm^2
Amount of permeation ([2]; sodium ascorbate, duration of permeation 2 hr): 0.005 μmol/cm^2
Amount of permeation [2, 3]: 0.007 μmol/cm^2

Now from value to compound:

Amount of permeation [2, 4]: 0.010 μmol/cm^2
Amount of permeation [2, 5]: 0.013 μmol/cm^2
Amount of permeation [2, 6]: 0.015 μmol/cm^2
SMILES: O=C1O[C@H]([C@@H](O)CO)C([O-])=C1OP(=O)([O-])[O-].O=C1O[C@H]([C@@H](O)CO)C([O-])=C1OP(=O)([O-])[O-].[Mg+2].[Mg+2].[Mg+2] [Comparative Example 9, magnesium salt of ascorbic acid-phosphoric acid ester]

Amount of permeation [1, 4]: 0.6 μmol/cm^2
Amount of permeation [1, 5]: 1.3 μmol/cm^2
Amount of permeation [1, 6]: 2.0 μmol/cm^2
SMILES: O=C1O[C@H]([C@@H](O)CO)C([O-])=C1OP(=O)([O-])[O-].O=C1O[C@H]([C@@H](O)CO)C([O-])=C1OP(=O)([O-])[O-].[Mg+2].[Mg+2].[Mg+2] [Comparative Example 2, magnesium salt of ascorbic acid-phosphoric acid ester]
